Data: US8921376B2, “Pyrrolopyridines useful as inhibitors of protein kinase” (Vertex Pharmaceuticals Incorporated, priority 2005, dated 2014)

Legend:
Format in all cases: biochemical
Details in all cases: Table 6; enzyme inhibition data (Ki)
JAK3 = molecular target: T1, JAK3 (Homo sapiens, UniProt P52333); experiment: JAK3 inhibition assay (33P incorporation into poly(Glu)4Tyr)
T1 sequence (P52333 1-1124): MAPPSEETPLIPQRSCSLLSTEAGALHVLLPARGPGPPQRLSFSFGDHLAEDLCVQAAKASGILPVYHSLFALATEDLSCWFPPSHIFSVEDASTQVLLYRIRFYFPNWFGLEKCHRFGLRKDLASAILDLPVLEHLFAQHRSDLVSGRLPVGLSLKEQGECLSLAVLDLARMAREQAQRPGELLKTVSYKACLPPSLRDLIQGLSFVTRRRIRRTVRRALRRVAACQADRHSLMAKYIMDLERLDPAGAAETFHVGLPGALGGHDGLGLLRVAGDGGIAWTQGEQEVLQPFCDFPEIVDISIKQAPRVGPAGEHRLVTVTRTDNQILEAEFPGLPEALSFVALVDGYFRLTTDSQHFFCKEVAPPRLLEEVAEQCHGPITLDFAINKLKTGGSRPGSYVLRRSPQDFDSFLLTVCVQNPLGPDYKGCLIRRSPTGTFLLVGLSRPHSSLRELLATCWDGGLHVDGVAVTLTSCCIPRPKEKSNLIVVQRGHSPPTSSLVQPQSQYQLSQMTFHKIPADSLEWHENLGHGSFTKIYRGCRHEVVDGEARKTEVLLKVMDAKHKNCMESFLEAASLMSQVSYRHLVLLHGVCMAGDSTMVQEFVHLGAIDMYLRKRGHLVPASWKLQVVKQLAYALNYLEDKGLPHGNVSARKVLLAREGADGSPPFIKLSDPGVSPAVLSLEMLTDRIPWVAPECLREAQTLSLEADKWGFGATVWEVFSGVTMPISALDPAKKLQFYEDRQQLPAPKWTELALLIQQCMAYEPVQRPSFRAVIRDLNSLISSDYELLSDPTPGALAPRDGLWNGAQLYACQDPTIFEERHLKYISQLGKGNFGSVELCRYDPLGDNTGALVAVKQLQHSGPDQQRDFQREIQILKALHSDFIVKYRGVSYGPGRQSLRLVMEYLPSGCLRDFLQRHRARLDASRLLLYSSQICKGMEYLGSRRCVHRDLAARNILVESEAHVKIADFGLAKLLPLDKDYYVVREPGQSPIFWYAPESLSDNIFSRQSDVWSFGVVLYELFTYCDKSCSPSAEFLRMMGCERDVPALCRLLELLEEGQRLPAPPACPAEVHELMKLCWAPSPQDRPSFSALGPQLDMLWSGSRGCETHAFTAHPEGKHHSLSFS
Summary of the method: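 Human JAK3 at 1 nM phosphorylated 1 μM poly(Glu)4Tyr using 5 μM [33P]ATP in HEPES pH 7.4 buffer with MgCl2, DTT and BSA. Reactions ran 20 min at 25° C. and were stopped with TCA. 33P incorporation was measured by scintillation after glass-fiber filter capture.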

JAK2 = JAK2 (Homo sapiens, UniProt O60674); experiment: JAK2 inhibition assay (as Example 3 with JAK-2 enzyme)
Sequence of JAK2 (O60674 whole entry): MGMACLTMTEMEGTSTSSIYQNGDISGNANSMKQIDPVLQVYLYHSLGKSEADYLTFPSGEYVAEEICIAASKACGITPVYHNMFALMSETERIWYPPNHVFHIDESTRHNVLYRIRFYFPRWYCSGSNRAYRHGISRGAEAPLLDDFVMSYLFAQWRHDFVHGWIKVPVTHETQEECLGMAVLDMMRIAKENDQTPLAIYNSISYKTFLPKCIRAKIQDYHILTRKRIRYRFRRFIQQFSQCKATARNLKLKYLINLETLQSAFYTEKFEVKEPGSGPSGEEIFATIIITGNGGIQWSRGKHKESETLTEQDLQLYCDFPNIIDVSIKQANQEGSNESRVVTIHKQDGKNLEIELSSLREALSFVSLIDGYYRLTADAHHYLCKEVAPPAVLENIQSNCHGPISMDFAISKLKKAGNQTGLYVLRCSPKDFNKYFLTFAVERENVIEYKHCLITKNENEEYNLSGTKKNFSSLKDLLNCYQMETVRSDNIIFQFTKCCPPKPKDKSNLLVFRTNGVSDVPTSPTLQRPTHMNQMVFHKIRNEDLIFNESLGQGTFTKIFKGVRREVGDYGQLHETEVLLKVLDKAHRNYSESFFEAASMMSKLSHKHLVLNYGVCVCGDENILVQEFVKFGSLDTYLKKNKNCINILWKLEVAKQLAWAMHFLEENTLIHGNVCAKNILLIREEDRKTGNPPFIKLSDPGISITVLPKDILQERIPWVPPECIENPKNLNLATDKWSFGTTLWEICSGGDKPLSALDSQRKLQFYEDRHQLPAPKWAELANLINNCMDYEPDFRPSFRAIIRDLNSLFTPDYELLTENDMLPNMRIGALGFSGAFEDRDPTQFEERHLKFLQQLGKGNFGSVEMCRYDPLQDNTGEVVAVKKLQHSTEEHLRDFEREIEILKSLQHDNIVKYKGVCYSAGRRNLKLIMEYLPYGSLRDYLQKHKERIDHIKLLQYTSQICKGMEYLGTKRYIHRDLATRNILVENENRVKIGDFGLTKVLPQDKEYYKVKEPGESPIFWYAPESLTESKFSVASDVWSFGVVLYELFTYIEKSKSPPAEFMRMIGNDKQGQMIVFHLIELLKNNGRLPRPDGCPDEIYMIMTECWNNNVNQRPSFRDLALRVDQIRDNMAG
Summary of the method: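 Radiometric JAK2 kinase assay: poly(Glu)4Tyr substrate at final 15 μM, ATP at final 12 μM with [33P]; buffer 100 mM HEPES pH 7.4, 1 mM DTT, 10 mM MgCl2, 25 mM NaCl, 0.01% BSA. 20 min at 25 °C, TCA-stopped, 33P incorporation counted after filter capture.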

ROCK I = ROCK I (Homo sapiens, UniProt Q13464); experiment: ROCK-I inhibition assay (radioactive enzyme assay, MBP substrate)
Sequence of ROCK I (Q13464 whole entry): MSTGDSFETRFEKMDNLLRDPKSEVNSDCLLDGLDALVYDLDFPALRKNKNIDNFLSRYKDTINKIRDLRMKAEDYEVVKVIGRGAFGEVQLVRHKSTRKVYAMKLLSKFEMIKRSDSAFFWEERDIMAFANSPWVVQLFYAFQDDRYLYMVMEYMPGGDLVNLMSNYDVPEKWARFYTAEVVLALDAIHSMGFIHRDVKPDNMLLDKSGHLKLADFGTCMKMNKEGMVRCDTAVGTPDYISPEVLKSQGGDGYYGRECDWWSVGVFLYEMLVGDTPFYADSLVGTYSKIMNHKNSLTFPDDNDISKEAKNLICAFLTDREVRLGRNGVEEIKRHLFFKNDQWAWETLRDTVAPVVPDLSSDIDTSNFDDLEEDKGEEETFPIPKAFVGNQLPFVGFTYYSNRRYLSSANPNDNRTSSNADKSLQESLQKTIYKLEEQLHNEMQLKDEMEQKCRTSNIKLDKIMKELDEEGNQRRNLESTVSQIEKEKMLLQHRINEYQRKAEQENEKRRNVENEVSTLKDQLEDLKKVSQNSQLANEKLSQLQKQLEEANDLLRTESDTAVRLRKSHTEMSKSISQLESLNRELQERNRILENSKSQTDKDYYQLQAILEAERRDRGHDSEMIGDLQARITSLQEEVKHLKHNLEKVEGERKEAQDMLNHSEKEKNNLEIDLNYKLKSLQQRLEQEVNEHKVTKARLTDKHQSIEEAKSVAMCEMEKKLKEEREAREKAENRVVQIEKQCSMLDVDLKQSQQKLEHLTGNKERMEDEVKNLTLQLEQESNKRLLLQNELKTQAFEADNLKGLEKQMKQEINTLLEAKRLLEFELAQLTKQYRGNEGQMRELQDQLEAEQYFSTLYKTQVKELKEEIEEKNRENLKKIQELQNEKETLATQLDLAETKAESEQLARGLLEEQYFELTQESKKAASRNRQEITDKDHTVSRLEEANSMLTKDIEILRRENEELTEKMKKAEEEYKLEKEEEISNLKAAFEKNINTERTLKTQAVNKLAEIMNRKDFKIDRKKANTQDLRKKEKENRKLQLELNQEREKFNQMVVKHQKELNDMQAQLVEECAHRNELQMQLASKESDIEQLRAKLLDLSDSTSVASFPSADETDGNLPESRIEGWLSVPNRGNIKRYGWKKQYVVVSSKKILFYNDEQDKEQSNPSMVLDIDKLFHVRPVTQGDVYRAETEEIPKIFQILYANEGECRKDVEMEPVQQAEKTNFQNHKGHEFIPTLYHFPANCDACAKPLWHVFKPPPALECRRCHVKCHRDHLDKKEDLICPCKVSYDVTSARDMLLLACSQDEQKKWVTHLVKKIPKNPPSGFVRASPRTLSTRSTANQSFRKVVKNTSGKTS
Summary of the method: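 Human ROCK at 5 nM phosphorylated 27 μM myelin basic protein with 13 μM [γ-33P]ATP (final) in HEPES pH 7.5, MgCl2, NaCl, DTT and 1.5% DMSO. Reactions ran 2 h at room temperature before TCA quench and filter-plate scintillation counting. After background subtraction, data were fit to give Ki(app).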

Ki (JAK3) [nM] | Ki (JAK2) [nM] | Ki (ROCK I) [nM] | Structure (SMILES)
< 500 | < 500 | < 500 | N#CCCN(Cc1cccnc1)C(=O)c1ccc(-c2ccnc3[nH]ccc23)s1 [compound 316]
< 500 | < 500 | < 500 | CCCCN(CC#N)C(=O)c1ccc(-c2ccnc3[nH]ccc23)s1 [compound 317]
< 500 | < 500 | < 500 | CCN(Cc1ccccn1)C(=O)c1ccc(-c2ccnc3[nH]ccc23)s1 [compound 318]
< 500 | < 500 | < 500 | CCCN(CC1CC1)C(=O)c1ccc(-c2ccnc3[nH]ccc23)s1 [compound 319]
< 500 | < 500 | < 500 | CCCN(CCC#N)C(=O)c1ccc(-c2ccnc3[nH]ccc23)s1 [compound 320]
< 500 | < 500 | < 500 | CCCCN(CCC#N)C(=O)c1ccc(-c2ccnc3[nH]ccc23)s1 [compound 321]
< 500 | < 500 | < 500 | CN(CCC#N)C(=O)c1ccc(-c2ccnc3[nH]ccc23)s1 [compound 322]
< 500 | < 500 | < 500 | C#CCN(C)C(=O)c1ccc(-c2ccnc3[nH]ccc23)s1 [compound 323]
< 500 | < 500 | < 500 | COCCN(CCOC)C(=O)c1ccc(-c2ccnc3[nH]ccc23)s1 [compound 324]
< 500 | < 500 | < 500 | CCCN(CCC)C(=O)c1ccc(-c2ccnc3[nH]ccc23)s1 [compound 325]
< 500 | < 500 | < 500 | CC(C)CN(C)C(=O)c1ccc(-c2ccnc3[nH]ccc23)s1 [compound 326]
500 to 5000 | < 500 | < 500 | CC(C)CN(CC(C)C)C(=O)c1ccc(-c2ccnc3[nH]ccc23)s1 [compound 327]
< 500 | < 500 | < 500 | N#CCCN(Cc1ccccc1)C(=O)c1ccc(-c2ccnc3[nH]ccc23)s1 [compound 328]
< 500 | < 500 | 500 to 5000 | CCN(CCC#N)C(=O)c1cc(-c2c(Cl)cnc3[nH]ccc23)c[nH]1 [compound 329]
< 500 | < 500 | 500 to 5000 | C=CCN(CC=C)C(=O)c1cc(-c2c(Cl)cnc3[nH]ccc23)c[nH]1 [compound 330]
< 500 | < 500 | 500 to 5000 | N#CCCN(Cc1cccnc1)C(=O)c1cc(-c2c(Cl)cnc3[nH]ccc23)c[nH]1 [compound 331]
< 500 | < 500 | 500 to 5000 | CCCCN(CC#N)C(=O)c1cc(-c2c(Cl)cnc3[nH]ccc23)c[nH]1 [compound 332]
< 500 | < 500 | > 4000 | CCN(Cc1ccccn1)C(=O)c1cc(-c2c(Cl)cnc3[nH]ccc23)c[nH]1 [compound 333]
< 500 | < 500 | 500 to 5000 | CCCN(CC1CC1)C(=O)c1cc(-c2c(Cl)cnc3[nH]ccc23)c[nH]1 [compound 334]
< 500 | < 500 | 500 to 5000 | CCCN(CCC#N)C(=O)c1cc(-c2c(Cl)cnc3[nH]ccc23)c[nH]1 [compound 335]
< 500 | < 500 | 500 to 5000 | CCCCN(CCC#N)C(=O)c1cc(-c2c(Cl)cnc3[nH]ccc23)c[nH]1 [compound 336]
< 500 | < 500 | 500 to 5000 | C#CCN(C)C(=O)c1cc(-c2c(Cl)cnc3[nH]ccc23)c[nH]1 [compound 338]
< 500 | < 500 | > 4000 | COCCN(CCOC)C(=O)c1cc(-c2c(Cl)cnc3[nH]ccc23)c[nH]1 [compound 339]
< 500 | < 500 | > 4000 | CCCN(CCC)C(=O)c1cc(-c2c(Cl)cnc3[nH]ccc23)c[nH]1 [compound 340]
< 500 | < 500 | 500 to 5000 | CC(C)CN(C)C(=O)c1cc(-c2c(Cl)cnc3[nH]ccc23)c[nH]1 [compound 341]
< 500 | < 500 | > 4000 | CC(C)CN(CC(C)C)C(=O)c1cc(-c2c(Cl)cnc3[nH]ccc23)c[nH]1 [compound 342]

The next lines start with the compound.

Structure (SMILES) | Ki (JAK3) [nM] | Ki (JAK2) [nM] | Ki (ROCK I) [nM]
CCN(CCC#N)C(=O)c1cc(-c2ccnc3[nH]ccc23)c[nH]1 [compound 297] | < 500 | < 500 | < 500
C=CCN(CC=C)C(=O)c1cc(-c2ccnc3[nH]ccc23)c[nH]1 [compound 298] | < 500 | < 500 | < 500
N#CCCN(Cc1cccnc1)C(=O)c1cc(-c2ccnc3[nH]ccc23)c[nH]1 [compound 299] | < 500 | < 500 | < 500
CCCCN(CC#N)C(=O)c1cc(-c2ccnc3[nH]ccc23)c[nH]1 [compound 300] | < 500 | < 500 | < 500
CCCN(CC1CC1)C(=O)c1cc(-c2ccnc3[nH]ccc23)c[nH]1 [compound 301] | < 500 | < 500 | < 500
CCCN(CCC#N)C(=O)c1cc(-c2ccnc3[nH]ccc23)c[nH]1 [compound 302] | < 500 | < 500 | < 500
CCCCN(CCC#N)C(=O)c1cc(-c2ccnc3[nH]ccc23)c[nH]1 [compound 303] | < 500 | < 500 | < 500
CCN(Cc1ccccc1)C(=O)c1ccc(-c2ccnc3[nH]ccc23)s1 [compound 304] | < 500 | < 500 | < 500
CCN(Cc1ccccn1)C(=O)c1cc(-c2ccnc3[nH]ccc23)c[nH]1 [compound 305] | < 500 | < 500 | 500 to 5000
CN(CCC#N)C(=O)c1cc(-c2ccnc3[nH]ccc23)c[nH]1 [compound 306] | < 500 | < 500 | < 500
C#CCN(C)C(=O)c1cc(-c2ccnc3[nH]ccc23)c[nH]1 [compound 307] | < 500 | < 500 | < 500
COCCN(CCOC)C(=O)c1cc(-c2ccnc3[nH]ccc23)c[nH]1 [compound 308] | < 500 | < 500 | 500 to 5000
CCCN(CCC)C(=O)c1cc(-c2ccnc3[nH]ccc23)c[nH]1 [compound 309] | < 500 | < 500 | < 500
CC(C)CN(C)C(=O)c1cc(-c2ccnc3[nH]ccc23)c[nH]1 [compound 310] | < 500 | < 500 | 500 to 5000
CC(C)CN(CC(C)C)C(=O)c1cc(-c2ccnc3[nH]ccc23)c[nH]1 [compound 311] | < 500 | < 500 | < 500
N#CCCN(Cc1ccccc1)C(=O)c1cc(-c2ccnc3[nH]ccc23)c[nH]1 [compound 312] | < 500 | < 500 | < 500
CCN(Cc1ccccc1)C(=O)c1cc(-c2ccnc3[nH]ccc23)c[nH]1 [compound 313] | < 500 | < 500 | < 500
CCN(CCC#N)C(=O)c1ccc(-c2ccnc3[nH]ccc23)s1 [compound 314] | < 500 | < 500 | < 500
C=CCN(CC=C)C(=O)c1ccc(-c2ccnc3[nH]ccc23)s1 [compound 315] | < 500 | < 500 | < 500
